Measured values from patent US20260256790A1, “DEBIO-0123 IN COMBINATION WITH TEMOZOLOMIDE AND RADIOTHERAPY FOR USE IN TREATING GLIOMA” (Debiopharm International S.A., priority 2023, published 2026).
Where two headings read alike, the source gives them in different places.

Tests used:
[1] = Plasma, brain and CSF concentrations (PK) in healthy rats after single oral dose; type: in vivo, Wistar Han rats; details: 15 mg/kg p.o. single dose; for Kp: 15 mg/kg
Protocol: Healthy male Wistar Han rats were treated orally with a single dose of 15 mg/kg Compound of formula (I) (24 rats in total, 3 rats per time-point). Compound of formula (I) was formulated as a suspension in 0.5% methylcellulose with 1% Tween 80 and administered at a concentration of 1.5 mg/mL with a dosing volume of 10 mL/kg.
At designated time-points (0.5; 1; 2; 4; 8; 24; 32; 48 hrs post-dose), the rats were euthanized by carbon dioxide inhalation. Thereafter, blood, CSF, and brain samples were collected as follows. Blood samples were collected by cardiac puncture into K2EDTA containing tubes. The tubes were inverted several times, placed on ice and centrifuged within 30 min of collection (4° C. for 5 min at 6000 rpm) to obtain plasma. The plasma samples were snap frozen in dry ice and stored at −80° C. until analysis. The CSF samples were collected by using a scalp-needle to puncture the foramen magnum. The CSF samples were acidified with 10% formic acid (final sample concentration of 0.5% formic acid) and stored in −80° C. until further analysis. The brain was collected, weighed and snap frozen in dry ice until further analysis. To obtain brain homogenates, firstly water was added to each brain (brain weight:water volume=1:4) then the brain was homogenized with a H-speed dispersator (time procedure: homogenizing for 10 s and interval of 10 s per time, total 3-5 times; cleaning procedure for dispersator: Water-Methanol-Ethanol-Water, 10 s each). The brain homogenate samples were transferred to individual tubes and stored at −80° C. prior to analysis.
The samples were analyzed as follows. For each analytical batch of plasma and brain samples, the standard and quality control (QC) samples were freshly prepared in blank male Wistar Han plasma (with K2EDTA anticoagulant) and brain homogenate. Acidified (containing 0.5% formic acid) artificial CSF was used as standard and quality control for the CSF samples. Additionally, one set of blank male Wistar Han CSF was included as QC sample.
To an aliquot of each standard, QC, control blank and study samples, internal standard (^13CD6-Compound of formula (I)) in methanol/acetonitrile (1:1, v/v) was added. The samples were mixed for 1 minute and centrifuged at 4000 rpm at 4° C. for 15 minutes. Supernatants were transferred and diluted in MeOH/water (1:1, v/v, with 0.1% FA) prior to LC-MS/MS injection.
Chromatographic separation was achieved on a Shimadzu LC-20AD (for plasma and brain samples) or Shimadzu LC-30AD (for CSF samples) using a Kinetex 2.6μ C18 100A column (50 mm*3.00 mm; for plasma and brain samples) or an ACE 5 C4 column (50 mm*2.1 mm; for CSF samples). The following conditions were applied: flow rate: 0.7 mL/min; run time: 3.0 min; mobile phase: A: 5 mM NH4OAc (0.1% FA), B: Acetonitrile (0.1% FA).
Detection was accomplished with an AB Sciex 5500 utilizing electrospray MS/MS in positive ion multiple reaction monitoring mode (MRM). The MRM channels were 511.29/98 for Compound of formula (I) and 518.17/102.10 for the internal standard ^13CD6-Compound of formula (I).
The measured plasma, CSF and brain concentrations at each time-point, the nominal sample collection time, and intended dosages were used for pharmacokinetic analysis. The PK parameters of all study compounds were determined by non-compartmental analysis using WinNonlin Version 8.0 (Pharsight).

[2] = tested on: U251 GBM cell line; test: Colony formation with radiotherapy, U251; type: cell-based; details: 0.1 μM to 5.0 μM, irradiated at 1, 2 and 4 Gy, p=0.6
Protocol: GBM tumor cells (T98G, LN18, SNB-19 and U251) were grown as an adherent monolayer at 37° C. in a humidified atmosphere (5% CO2, 95% air). For experimental use, tumor cells were detached from culture flasks by a 5-minute treatment with trypsin-versene, in Hanks' medium without calcium or magnesium and neutralized by addition of complete culture medium. Cells were counted and viability assessed using a 0.25% trypan blue exclusion assay. All cell lines were appropriately seeded following the conditions for monolayer colony formation in 6-well plates (Ref #152795, Nunc, Dutscher) in 1.9 ml of cell culture medium, at 3 densities for evaluation of a proclonogenic effect. […]
Treatments were performed at 24 hours (D1) after seeding by addition of ×20 concentrated compound or vehicle solutions, to obtain final concentrations of 0.1 μM to 5.0 μM of Compound of formula (I) [referred to as CoF (I) in FIG. 3]. […] After 14 days of incubation, colonies were counted after being stained through incubation with 500 μl of a solution of water containing 0.05% (w/v) of methylene blue (Ref. M4159, Sigma) for 2 hours. Colonies were counted using a colony counter pen (Ref #045855, Dutscher, Brumath, France). The Surviving Fraction was calculated for each condition using the equations described below and plotted on a semi-logarithmic graph using the Linear-Quadratic model. […]

Which results are given for `Cc1cc(Nc2ncc3c(n2)N(C)CN(c2c(Cl)cccc2Cl)C3=O)ccc1C1CCN(C)CC1` [Compound of formula (I)]?
AUCInf, brain [1]: 8415 ng·h/g; AUCLast, brain [1]: 8383 ng·h/g; Cmax, CSF [1]: 0.0156 µg/mL; Cmax, brain [1]: 588 ng/g; AUC(0-inf) ([1]; male, Wistar Han, rat, CSF, po, read-out: AUCInf, CSF): 0.221 µg·h/mL; AUC(0-t) ([1]; male, Wistar Han, rat, CSF, po, read-out: AUCLast, CSF): 0.219 µg·h/mL; Kp ([1]; male, Wistar Han, rat, CSF/unbound plasma, oral, unbound plasma from free fraction 7.8%, read-out: CSF to unbound plasma ratio based on AUCInf): 0.2; Kp ([1]; male, Wistar Han, rat, CSF/unbound plasma, oral, unbound plasma from free fraction 7.8%, read-out: CSF to unbound plasma ratio based on AUCLast): 0.2; Kp ([1]; male, Wistar Han, rat, CSF/unbound plasma, oral, unbound plasma from free fraction 7.8%, read-out: CSF to unbound plasma ratio based on Cmax): 0.18; Kp ([1]; male, Wistar Han, rat, brain/plasma, po, read-out: Brain to plasma ratio based on AUCInf): 0.6; Kp ([1]; male, Wistar Han, rat, brain/plasma, po, read-out: Brain to plasma ratio based on AUCLast): 0.6; Kp ([1]; male, Wistar Han, rat, brain/plasma, po, read-out: Brain to plasma ratio based on Cmax): 0.52; Cmax ([1]; male, Wistar Han, rat, plasma, po): 1.14 µg/mL; AUC(0-inf) ([1]; male, Wistar Han, rat, plasma, po, read-out: AUCInf, plasma): 14.1 µg·h/mL; AUC(0-t) ([1]; male, Wistar Han, rat, plasma, po, read-out: AUCLast, plasma): 14.1 µg·h/mL; Effect on radiotherapy (surviving fraction, colony formation) [2]: not significant
